Results: ChEMBL document CHEMBL4411286, “Discovery of new potent hits against intracellular Trypanosoma cruzi by QSAR-based virtual screening” (Eur J Med Chem, 2019)

Legend:
[1] = Cytotoxicity against human U2OS cells assessed as reduction in cell viability after 96 hrs; assay type: cell-based
[2] = Selectivity index, ratio of CC50 for human U2OS cells to EC50 for Trypanosoma cruzi Y infected in human U2OS cells; assay type: toxicity, cell-based; conditions: read-out: Ratio CC50/EC50
Trypanosoma cruzi = test: Antimicrobial activity against Trypanosoma cruzi Y infected in human U2OS cells after 96 hrs by HCS assay; assay type: functional, organism-based

Compound	EC50 (Trypanosoma cruzi; read-out: EC50)	EC50 (Trypanosoma cruzi; read-out: pEC50 (converted))	CC50 at 96 h ([1]; read-out: CC50)	selectivity ratio [2]	CC50 at 96 h ([1]; read-out: pCC50 (converted))
COc1cccc(-c2noc(-c3cccnc3)n2)c1	86 µM	85.1 µM	106 µM	1.2	
C=CCSc1nc(-c2ccc(OC)cc2)n[nH]1	149 µM		195 µM	1.3	
Cc1ccc(-c2csc(-c3cccnc3)n2)cc1C	2.7 µM	2.69 µM	40.8 µM	15.1	
O=C(NC(Cn1ccnc1)c1ccccc1)c1cccc(-n2cccn2)c1 (centres undefined)	0.3 µM	0.257 µM	11.8 µM	46.3	11.7 µM
COc1ccc(S(=O)(=O)N(Cc2ccncc2)Cc2ccc(OCC(C)C)cc2)cc1OC	0.5 µM	0.479 µM	21.7 µM	45.7	21.9 µM
CC1=C(C(=O)OCCc2ccccc2)C(c2ccncc2)C2=C(CC(c3ccccc3)CC2=O)N1 (centres undefined)	> 200 µM	> 200 µM	> 200 µM		
COc1ccc(N2CCN(C(=O)COc3ccc(C4CCCCC4)cc3)CC2)c([N+](=O)[O-])c1	38.3 µM		49.6 µM	1.3	
CC(C)COc1ccc(CN(Cc2ccncc2)S(=O)(=O)c2ccc(F)c(F)c2)cc1	0.4 µM	0.38 µM	11.5 µM	30.6	11.5 µM
Cc1nnc(-c2cccc(-c3ccnc4[nH]ccc34)c2)s1	> 200 µM		127 µM	< 0.6	
O=C(NC(Cn1ccnc1)c1ccccc1)c1csc(-c2cccs2)n1 (centres undefined)	> 200 µM	> 200 µM	> 200 µM		200 µM
CC(Oc1ccc(-c2ccccc2)cc1)C(=O)Nc1ccc(S(=O)(=O)Nc2nccs2)cc1 (centres undefined)	> 200 µM		> 200 µM		
Nc1ncc(-c2nc(-c3cccnn3)no2)c(-c2ccccc2)n1	> 200 µM		99.7 µM	< 0.5	
O=C(N/C(=C/c1cccnc1)c1nc2ccccc2[nH]1)c1cccc(Br)c1	18.9 µM		47.4 µM	2.5	
c1cncc(-c2nc(-c3cnccn3)n[nH]2)c1	3.4 µM		1.5 µM	0.4	
O=C(NC(Cn1ccnc1)c1ccccc1)c1ccc(-n2cnnn2)cc1 (centres undefined)	0.3 µM	0.257 µM	33.6 µM	137	35.5 µM
COc1ccc2c(c1)cc(C(=O)NC(Cn1ccnc1)c1ccccc1)n2C (centres undefined)	13.3 µM	13.2 µM	0.62 µM		0.617 µM
Cc1ncsc1CCC(=O)NC(Cn1ccnc1)c1ccccc1 (centres undefined)	> 200 µM		> 200 µM		
CC(=O)Nc1ccc(Cl)c(C(=O)NC(Cn2ccnc2)c2ccccc2)c1 (centres undefined)	2.7 µM		> 200 µM	> 72.8	
O=C(CC(Nc1ccc2ccccc2c1)c1ccncc1)c1ccc(Br)cc1 (centres undefined)	0.8 µM		> 200 µM	> 258	
COc1ccc(C2CC(=O)C3=C(C2)NC(C)=C(C(=O)OCCc2ccccc2)C3c2ccncc2)cc1 (centres undefined)	0.4 µM	0.417 µM	19.3 µM	46.5	
Oc1ccccc1-c1n[nH]c(-c2ccccn2)n1	> 200 µM		> 200 µM		
Cc1ccccc1-c1noc(-c2cccnc2)n1	18.6 µM	18.6 µM	> 200 µM	> 10.8	
CC(C)COc1ccc(CN(Cc2ccncc2)S(=O)(=O)c2cccc(F)c2)cc1	> 200 µM	> 200 µM	> 200 µM		200 µM
c1cncc(-c2nc(-c3cccs3)no2)c1	> 200 µM	> 200 µM	66.3 µM	< 0.3	
CC(C)COc1ccc(CN(Cc2ccncc2)S(=O)(=O)c2ccc(F)cc2F)cc1	0.7 µM	0.724 µM	> 200 µM	> 274	200 µM
O=C(Cn1ccnc1[N+](=O)[O-])NCc1ccccc1 [BENZNIDAZOLE]	3.1 µM		> 200 µM	> 128	

Second part, led by results:

EC50 (Trypanosoma cruzi; read-out: EC50)	EC50 (Trypanosoma cruzi; read-out: pEC50 (converted))	Compound	CC50 at 96 h ([1]; read-out: CC50)	selectivity ratio [2]	CC50 at 96 h ([1]; read-out: pCC50 (converted))
4.2 µM	4.17 µM	Clc1ccc(-c2csc(-c3cccnc3)n2)cc1	> 200 µM	> 48	
36.9 µM	37.2 µM	Cc1nnc(SCC(=O)N2c3ccccc3CC2C)n1-c1ccccc1 (centres undefined)	155 µM	4.2	
7 µM	6.92 µM	Cc1ccc(-n2c(SCC(=O)N3CCN(c4ccccc4)CC3)nnc2-c2ccncc2)cc1Cl	21.1 µM	3	
191 µM		Cc1ccc(N2C(=O)C(CC(=O)Nc3ccccc3)N(Cc3cccnc3)C2=O)cc1 (centres undefined)	> 200 µM	> 1	
> 200 µM		Clc1ccc(Cc2nn3c(CN4CCN(c5ccccc5)CC4)nnc3s2)cc1	> 200 µM		
20.1 µM	20 µM	O=C(CSc1nc(-c2ccncc2)n[nH]1)N1CCN(c2ccccc2)CC1	> 200 µM	> 9.9	
1.2 µM		Cc1nccn1-c1ccc(Cn2ccnc2-c2cc3ccccc3[nH]c2=O)cc1	52.9 µM	43.9	
> 200 µM	> 200 µM	Cn1c(SCC(=O)N2CCN(c3ccccc3)CC2)nnc1-c1ccc(Br)cc1	> 200 µM		
2.7 µM	2.69 µM	COc1ccc(N2CCN(C(=O)CN(Cc3ccccc3C)S(=O)(=O)c3ccc(Cl)cc3)CC2)cc1	73.9 µM	27.7	74.1 µM
> 200 µM		N#Cc1ccc(-c2ccc(OCC(=O)N3CCN(c4cccc(Cl)c4)CC3)cc2)cc1	> 200 µM		
> 200 µM	> 200 µM	O=C(COc1ccc(-c2ccccc2)cc1)N1CCN(S(=O)(=O)c2ccc(F)cc2)CC1	> 200 µM		200 µM
109 µM	110 µM	CC1Cc2ccccc2N1C(=O)CSc1nnnn1-c1ccccc1 (centres undefined)	> 200 µM	> 1.8	
> 200 µM	> 200 µM	Cn1c(SCC(=O)N2CCN(c3ccccc3F)CC2)nnc1-c1cccnc1	198 µM	< 1	
